Earlier results in patent publication US20060110359A1, “Cellular delivery of natriuretic peptides” (priority 2002, published 2006).

Tests used:
brain edema [1] = conditions: for effect on brain edema: experimental brain hemorrhage in rats
brain edema [2] = conditions: into rat lateral ventricle or intravenously

Row | SMILES | effect on brain edema (brain edema [1]) | brain water and sodium (brain edema [1]; given after a 4-hour delay, 24 hours after hemorrhage, rats) | brain water and sodium accumulation (brain edema [2])
1 | Nc1nc2c(nc(Br)n2[C@@H]2O[C@@H]3COP(=O)(O)O[C@H]3[C@H]2O)c(=O)[nH]1 [8-bromo-cGMP] | Neither mannitol nor 8-bromo-cGMP affected brain edema |  | 
2 | CC[C@H](C)[C@@H]1NC(=O)[C@H](CCCNC(=N)N)NC(=O)[C@H](CC(=O)O)NC(=O)[C@H](CCSC)NC(=O)[C@H](CCCNC(=N)N)NC(=O)CNC(=O)CNC(=O)[C@H](Cc2ccccc2)NC(=O)[C@@H](NC(=O)[C@H](CO)NC(=O)[C@H](CO)NC(=O)[C@H](CCCNC(=N)N)NC(=O)[C@H](CCCNC(=N)N)NC(=O)[C@H](CC(C)C)NC(=O)[C@@H](N)CO)CSSC[C@@H](C(=O)N[C@@H](CC(N)=O)C(=O)N[C@@H](CO)C(=O)N[C@@H](Cc2ccccc2)C(=O)N[C@@H](CCCNC(=N)N)C(=O)N[C@@H](Cc2ccc(O)cc2)C(=O)O)NC(=O)CNC(=O)[C@H](CC(C)C)NC(=O)CNC(=O)[C@H](CO)NC(=O)[C@H](CCC(N)=O)NC(=O)[C@H](C)NC(=O)CNC1=O [ANP, atrial natriuretic peptide] |  | significantly reduced | inhibit brain water and sodium accumulation
3 | OC[C@@H](O)[C@@H](O)[C@H](O)[C@H](O)CO [mannitol] | Neither mannitol nor 8-bromo-cGMP affected brain edema |  | 
